Results: ChEMBL document CHEMBL3853312, “Blocking Blood Flow to Solid Tumors by Destabilizing Tubulin: An Approach to Targeting Tumor Growth” (J Med Chem, 2016)

Assays:
Assay type in all cases: ADME, organism-based
[1] = Tmax in human at 250 mg, po qd regimen measured on day 7 post dose by LC-MS analysis; details: in vivo
[2] = Drug excretion in iv dosed human urine assessed as unchanged compound administered as 30 mins infusion after 24 hrs by LC-MS/MS analysis; details: read-out: Drug excretion
[3] = Apparent half life in human at 11.5 to 42 mg/m'-2, iv dosed as 30 mins infusion by LC-MS/MS analysis; details: in vivo, read-out: t1/2(app)

COc1ccc(S(=O)(=O)Nc2cccnc2Nc2ccc(O)cc2)cc1 [ABT-751]
Tmax [1]: 120 min

COc1cc(C(=O)c2ccc(-c3csc(NC(=O)[C@@H](N)C(C)C)n3)cc2-n2cncn2)cc(OC)c1OC
dose excreted at 24 h [2]: < 1%

COc1ccc(/C=C\c2cc(OC)c(OC)c(OC)c2)cc1NC(=O)[C@@H](N)CO [OMBRABULIN]
half-life [3]: 12 min
